In patent US20250179059A1 (The Regents of the University of California, priority 2021, published 2025):
pIC50: −log10 of the molar value. Where two headings read alike, the source gives them in different places.

Experiments:
[1] = system: human SKM-1 acute myeloid leukemia cells; test: SKM-1 antiproliferation cell-based assay (ATPlite); details: Homo sapiens
In short: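 Log-phase cells in RPMI 1640/15% FBS were seeded at 34722 cells/mL and exposed for 4 days to nine-concentration DMSO serial dilutions in triplicate. Viability was read as ATP luminescence (ATPlite 1step), and IC50 values came from variable-slope non-linear regression.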

[2] = biological target: T1, human BRD4 bromodomain II (Homo sapiens, UniProt O60885); test: Bromodomain binding assay (AlphaScreen), BRD4 BDII
T1 construct: human BRD4 bromodomain II [based on Genbank NM_058243, residues 349-460]; host or cells: E. coli
In short: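 Compounds (10-point, 3-fold series) were preincubated 30 min at room temperature with E. coli-expressed N-terminal His6-tagged BRD4 BDII (residues 349-460) or BDI (residues 44-170) in 50 mM HEPES pH 7.5, 100 mM NaCl, 0.05% CHAPS, 0.1% BSA, 1% DMSO. Displacement of biotinylated tetra-acetylated H4 1-21 peptide was read by AlphaScreen; IC50 from curve fitting.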

[3] = SKM-1, SKM-1 antiproliferation assay
[4] = BRD4 BDII AlphaScreen assay, read-out: BRD4 BD2 IC50
[5] = SKM-1, 96 h, SKM-1 antiproliferation assay, 4 days, Table C2
[6] = AlphaScreen assay, Table C2, read-out: BRD4 BDII IC50

| SMILES | GI50 [1, 3] | pIC50 [2, 4] | GI50 [1, 5] | pIC50 [2, 6] |
| --- | --- | --- | --- | --- |
| Cc1ncc(-c2cc(F)cc(-c3ccc(-n4ccn(C)c4=O)c(Cl)c3)c2O)cc1N1CCN(C2CCOC2)CC1 (centres unmarked) [Example 890] | 0.3 to 30 nM | 8.00 to 9.00 | – | – |
| Cn1ccn(-c2ccc(-c3cc(F)cc(-c4ccnc(N5CCN(CCC6CC6)CC5)c4)c3O)cc2Cl)c1=O [Example 681, 1-(3-chloro-3′-(2-(4-(2-cyclopropylethyl)piperazin-1-yl)pyridin-4-yl)-5′-fluoro-2′-hydroxy-[1,1′-biphenyl]-4-yl)-3-methyl-1H-imidazol-2(3H)-one] | – | – | 0.3 to 30 nM | 9.00 to 11.00 |
| C[C@H]1CCCN(c2cc(-c3cc(F)cc(-c4ccc(-n5ccn(C)c5=O)c(Cl)c4)c3O)ccn2)C1 [Example 632, (S)-1-(3-chloro-5′-fluoro-2′-hydroxy-3′-(2-(3-methylpiperidin-1-yl)pyridin-4-yl)-[1,1′-biphenyl]-4-yl)-3-methyl-1H-imidazol-2(3H)-one] | – | – | 300 to 3000 nM | 7.00 to 8.00 |
| CO[C@H]1COC(=O)N1c1ccc(-c2cc(F)cc(-c3ccnc(N4CCNCC4)c3)c2O)cc1Cl [Example 506, (S)-3-(3-chloro-5′-fluoro-2′-hydroxy-3′-(2-(piperazin-1-yl)pyridin-4-yl)-[1,1′-biphenyl]-4-yl)-4-methoxyoxazolidin-2-one] | – | – | 300 to 3000 nM | 7.00 to 8.00 |
| Cc1cc(-c2ccc(-n3ccn(C)c3=O)c(Cl)c2)c(O)c(-c2cc(N3CCN(C(C)(C)C)CC3)c3nccn3c2)n1 [Example 971, 1-(4-(2-(8-(4-(tert-butyl)piperazin-1-yl)imidazo[1,2-a]pyridin-6-yl)-3-hydroxy-6-methylpyridin-4-yl)-2-chlorophenyl)-3-methyl-1H-imidazol-2(3H)-one] | 0.3 to 30 nM | 9.00 to 11.00 | – | – |
| Cc1ccc(-c2cc(F)cc(-c3ccc(-n4ccn(C)c4=O)c(Cl)c3)c2O)cc1C(N)=O [Example 766] | – | – | 30 to 300 nM | 8.00 to 9.00 |
| C[C@@H]1CN(c2cc(-c3cc(F)cc(-c4ccc(-n5ccn(C)c5=O)c(Cl)c4)c3O)cc(=O)n2C)CCN1 [Example 689, (R)-4-(3′-chloro-5-fluoro-2-hydroxy-4′-(3-methyl-2-oxo-2,3-dihydro-1H-imidazol-1-yl)-[1,1′-biphenyl]-3-yl)-1-methyl-6-(3-methylpiperazin-1-yl)pyridin-2(1H)-one] | – | – | 0.3 to 30 nM | 9.00 to 11.00 |
| CSc1cc(-c2cc(F)cc(-c3cnc(SC)c(N4CCN(C(C)C)CC4)c3)c2O)ccc1-n1ccn(C)c1=O [Example 818, 1-(5′-fluoro-2′-hydroxy-3′-(5-(4-isopropylpiperazin-1-yl)-6-(methylthio)pyridin-3-yl)-3-(methylthio)-[1,1′-biphenyl]-4-yl)-3-methyl-1H-imidazol-2(3H)-one] | – | – | 30 to 300 nM | < 7.00 |
| CC[C@@]1(O)CCN(c2cc(-c3cc(F)cc(-c4ccc(-n5ccn(C)c5=O)c(Cl)c4)c3O)ccn2)C1 [Example 820, (R)-1-(3-chloro-3′-(2-(3-ethyl-3-hydroxypyrrolidin-1-yl)pyridin-4-yl)-5′-fluoro-2′-hydroxy-[1,1′-biphenyl]-4-yl)-3-methyl-1H-imidazol-2(3H)-one] | – | – | 0.3 to 30 nM | 8.00 to 9.00 |
| CN[C@H]1CCN(c2cc(-c3cc(F)cc(-c4ccc(-n5ccn(C)c5=O)c(Cl)c4)c3O)ccn2)C1 [Example 429] | – | – | 0.3 to 30 nM | 9.00 to 11.00 |
| Cn1ccn(-c2ccc(-c3cc(F)cc(-c4ccccc4CN4CCNCC4)c3O)cc2Cl)c1=O [Example 889] | 300 to 3000 nM | < 7.00 | – | – |
| CC(=O)Nc1cc(-c2cc(F)cc(-c3ccc(-n4ccn(C)c4=O)c(Cl)c3)c2O)cc(N2CCN[C@H](C)C2)n1 [Example 544] | – | – | 0.3 to 30 nM | 9.00 to 11.00 |
| CCc1cc(-c2ccnc(N3CCNCC3)c2)c(O)c(-c2ccc(N3CCN(C)C3=O)c(Cl)c2)c1 [Example 311, l-(3-chloro-5′-ethyl-2′-hydroxy-3′-(2-(piperazin-1-yl)pyridin-4-yl)-[1,1′-biphenyl]-4-yl)-3-methylimidazolidin-2-one] | – | – | 300 to 3000 nM | 8.00 to 9.00 |
| Cn1ccn(-c2ccc(-c3cc(F)cc(-c4ccnc(N5CCOCC5)c4)c3O)cc2Cl)c1=O [Example 615, 1-(3-chloro-5′-fluoro-2′-hydroxy-3′-(2-morpholinopyridin-4-yl)-[1,1′-biphenyl]-4-yl)-3-methyl-1H-imidazol-2(3H)-one] | – | – | 30 to 300 nM | 8.00 to 9.00 |
| COc1ncc(-c2nc(C)cc(-c3ccc(-n4ccn(C)c4=O)c(C)c3)c2O)cc1N1CCN(C(C)(C)C)CC1 [Example 1015, 1-(4-(5′-(4-(tert-butyl)piperazin-1-yl)-3-hydroxy-6′-methoxy-6-methyl-[2,3′-bipyridin]-4-yl)-2-methylphenyl)-3-methyl-1H-imidazol-2(3H)-one] | 0.3 to 30 nM | 8.00 to 9.00 | – | – |
| C[C@@H]1CN(c2cc(-c3cc(F)cc(-c4ccc(N5CCN(C)C5=O)c(Cl)c4)c3O)cn(C)c2=O)CCN1 [Example 377, (R)-5-(3′-chloro-5-fluoro-2-hydroxy-4′-(3-methyl-2-oxoimidazolidin-1-yl)-[1,1′-biphenyl]-3-yl)-1-methyl-3-(3-methylpiperazin-1-yl)pyridin-2(1H)-one] | – | – | 30 to 300 nM | 8.00 to 9.00 |
| CNc1ncc(-c2nc(C)cc(-c3ccc(-n4ccn(C)c4=O)c(Cl)c3)c2O)cc1N1CCC2(CCN2C(C)C)C1 (centres unmarked) [Example 980, 1-(2-chloro-4-(3-hydroxy-5′-(1-isopropyl-1,6-diazaspiro[3.4]octan-6-yl)-6-methyl-6′-(methylamino)-[2,3′-bipyridin]-4-yl)phenyl)-3-methyl-1H-imidazol-2(3H)-one] | 0.3 to 30 nM | 8.00 to 9.00 | – | – |
| CC(C)N1CCC12CCN(c1cccc(-c3cc(F)cc(-c4ccc(-n5ccn(C)c5=O)c(Cl)c4)c3O)c1)C2 (centres unmarked) [Example 892] | 0.3 to 30 nM | 8.00 to 9.00 | – | – |
| CC[C@]1(O)CCN(c2cc(-c3cc(F)cc(-c4ccc(-n5ccn(C)c5=O)c(Cl)c4)c3O)ccn2)C1 [Example 819, (S)-1-(3-chloro-3′-(2-(3-ethyl-3-hydroxypyrrolidin-1-yl)pyridin-4-yl)-5′-fluoro-2′-hydroxy-[1,1′-biphenyl]-4-yl)-3-methyl-1H-imidazol-2(3H)-one] | – | – | 30 to 300 nM | 8.00 to 9.00 |
| CCC[C@@H]1CN(c2cc(-c3cc(F)cc(-c4ccc(-n5ccn(C)c5=O)c(Cl)c4)c3O)cc3[nH]ncc23)CCN1 [Example 592, (R)-1-(3-chloro-5′-fluoro-2′-hydroxy-3′-(4-(3-propylpiperazin-1-yl)-1H-indazol-6-yl)-[1,1′-biphenyl]-4-yl)-3-methyl-1H-imidazol-2(3H)-one] | – | – | 0.3 to 30 nM | 8.00 to 9.00 |
| [2H]C([2H])([2H])n1ccn(-c2ccc(-c3cc(F)cc(-c4ccnc(N5CCNCC5=O)c4)c3O)cc2Cl)c1=O [Example 464, 1-(4-(3′-chloro-5-fluoro-2-hydroxy-4′-(3-deuteromethyl-2-oxo-2,3-dihydro-1H-imidazol-1-yl)-[1,1′-biphenyl]-3-yl)pyridin-2-yl)piperazin-2-one] | – | – | 30 to 300 nM | 9.00 to 11.00 |
| CC(C)Oc1cc(-c2cc(F)cc(-c3cccc(N4CCN(C(C)(C)C)CC4)c3)c2O)cc(Cl)c1-n1ccn(C)c1=O [Example 937, 1-(3″-(4-(tert-butyl)piperazin-1-yl)-3-chloro-5′-fluoro-2′-hydroxy-5-isopropoxy-[1,1′:3′,1″-terphenyl]-4-yl)-3-methyl-1,3-dihydro-2H-imidazol-2-one] | 30 to 300 nM | 7.00 to 8.00 | – | – |
| Cn1ccn(-c2ccc(-c3cc(F)cc(-c4ccnc(N5CCN(CC(C)(C)C#N)CC5)c4)c3O)cc2Cl)c1=O [Example 652, 3-(4-(4-(3′-chloro-5-fluoro-2-hydroxy-4′-(3-methyl-2-oxo-2,3-dihydro-1H-imidazol-1-yl)-[1,1′-biphenyl]-3-yl)pyridin-2-yl)piperazin-1-yl)-2,2-dimethylpropanenitrile] | – | – | 30 to 300 nM | 9.00 to 11.00 |
| Cc1ccc(-c2cc(F)cc(-c3ccc(-n4ccn(C)c4=O)c(Cl)c3)c2O)cc1N1CC(O)(CO)C1 [Example 841, 1-(3-chloro-5′-fluoro-2′-hydroxy-3″-(3-hydroxy-3-(hydroxymethyl)azetidin-1-yl)-4″-methyl-[1,1′:3′,1″-terphenyl]-4-yl)-3-methyl-1H-imidazol-2(3H)-one] | – | – | 30 to 300 nM | 8.00 to 9.00 |
| Cn1ccn(-c2ccc(-c3cc(F)cc(-c4cnnc(N5CCN(C(C)(C)C)CC5)c4)c3O)cc2Cl)c1=O [Example 798, 1-(3′-(6-(4-(tert-butyl)piperazin-1-yl)pyridazin-4-yl)-3-chloro-5′-fluoro-2′-hydroxy-[1,1′-biphenyl]-4-yl)-3-methyl-1H-imidazol-2(3H)-one] | – | – | 0.3 to 30 nM | 9.00 to 11.00 |
| COc1cc(-c2cccc(-c3ccc(NC(C)=O)c(F)c3)c2O)cc(N2CCNCC2)n1 [Example 339, N-(3-fluoro-2′-hydroxy-3′-(2-methoxy-6-(piperazin-1-yl)pyridin-4-yl)-[1,1′-biphenyl]-4-yl)acetamide] | – | – | 300 to 3000 nM | 7.00 to 8.00 |
| Cn1ccn(-c2ccc(-c3cc(F)cc(-c4ccnc(N5CCC[C@H](O)C5)c4)c3O)cc2Cl)c1=O [Example 628, (S)-1-(3-chloro-5′-fluoro-2′-hydroxy-3′-(2-(3-hydroxypiperidin-1-yl)pyridin-4-yl)-[1,1′-biphenyl]-4-yl)-3-methyl-1H-imidazol-2(3H)-one] | – | – | 30 to 300 nM | 9.00 to 11.00 |
| O=C1CCCN1c1ccc(-c2c[nH]cc(-c3cccc(N4CCNCC4)c3)c2=O)cc1F [Example 307, 3-(3-fluoro-4-(2-oxopyrrolidin-1-yl)phenyl)-5-(3-(piperazin-1-yl)phenyl)pyridin-4(1H)-one] | – | – | ≥ 3000 nM | < 7.00 |
